Measured values from US9120816B2, “Oxanorbornadiene derivatives and their anticancer activities” (priority 2012, dated 2015).
Read-outs that look alike come from different tables or passages of the source.

Key:
[1] = test system: HepG2 (human hepatocellular carcinoma); experiment: MTT cytotoxicity assay, HepG2; assay type: cell-based; settings: 48 hrs treatment
Protocol: (§1) Cytotoxic activities of all compounds are evaluated by MTT assay using KYSE-150 (human oesophagus carcinoma), MKN-45 (human gastric aednocarcinoma), DLD-1 (human colorectal carcinoma cell line), HepG2 (human hepatocellular carcinoma), MCF-7 (human breast adenocarcinoma), and MDA-MB-231 (human breast adenocarcinoma). Canthatidin is used as positive control.
(§2) Cells are seeded in a 96-well plate (4×10^3 cells/well) and allowed to attach overnight.
(§3) After the recovery, cells are treated with 1.56 μM, 3.125 μM, 6.25 μM, 12.5 μM, 25 μM, 50 μM of each of the compounds in culture medium for 48 hrs. […] Finally, the culture medium is removed and 200 μL of DMSO are added to each well to dissolve the purple formazan crystals.

[2] = test system: KYSE-150 (human oesophagus carcinoma); experiment: MTT cytotoxicity assay, KYSE-150; assay type: cell-based; settings: for IC50: Homo sapiens, KYSE-150
Protocol: as §1, §2, §3

[3] = test system: MCF-7 (human breast adenocarcinoma); experiment: MTT cytotoxicity assay, MCF-7; assay type: cell-based; settings: for IC50: Homo sapiens, MCF7
Protocol: as §1, §2, §3

[4] = test system: MDA-MB-231 (human breast adenocarcinoma); experiment: MTT cytotoxicity assay, MDA-MB-231; assay type: cell-based; settings: for IC50: Homo sapiens, MDA-MB-231
Protocol: as §1, §2, §3

[5] = test system: DLD-1 (human colorectal carcinoma cell line); experiment: MTT cytotoxicity assay, DLD-1; assay type: cell-based; settings: for IC50: Homo sapiens, DLD-1
Protocol: as §1, §2, §3

[6] = test system: MKN-45 (human gastric aednocarcinoma); experiment: MTT cytotoxicity assay, MKN-45; assay type: cell-based; settings: 48 hrs treatment
Protocol: as §1, §2, §3

KYSE-150 cells = experiment: Wound healing assay; assay type: cell-based, human; settings: for Cell migration into the wound: KYSE-150 monolayer, 72 h, 1 and 2.5 μM/mL; for Viability of KYSE-150 cells as compared to controls: highest concentration of 1 μM/mL and 2.5 μM/mL
Protocol: In addition, wound healing assay is used to test whether the compounds 1, 2 and 3 could affect cell motility.
A wound healing assay is performed as follows: KYESE-150 cells are seeded in each well of the 12-well plate at 50% confluence in completed medium. After 24 hrs seeding, the monolayer is wounded by scoring with a sterile plastic tip (1 mL), then washed several times with medium to remove cell debris and then incubated in conditioned medium in the absence or presence of the tested compounds for various periods of time up to 72 h. […] Cell migration into the wound surface is monitored by Olympus IX71 microscopy and digitally photographed.

[7] = MTT, 48 hrs treatment, read-out: Cytotoxicity IC50, KYSE-150
[8] = MTT, 48 hrs treatment, read-out: Cytotoxicity IC50, MCF-7
[9] = MTT, 48 hrs treatment, read-out: Cytotoxicity IC50, MDA-MB-231
[10] = MTT, 48 hrs treatment, read-out: Cytotoxicity IC50, DLD-1

Row | SMILES | IC50 [1] [µM] | IC50 [2, 7] [µM] | IC50 [3, 8] [µM] | IC50 [4, 9] [µM] | IC50 [5, 10] [µM] | IC50 [6] [µM] | Cell migration into the wound (KYSE-150 cells) | Viability of KYSE-150 cells as compared to controls (KYSE-150 cells) | IC50 ([2]; summary statement in conclusion, read-out: IC50 of cell growth inhibition, KYSE-150) [µM] | IC50 ([3]; summary statement in conclusion, read-out: IC50 of cell growth inhibition, MCF-7) [µM] | IC50 ([4]; summary statement in conclusion, read-out: IC50 of cell growth inhibition, MDA-MB-231) [µM] | IC50 ([5]; summary statement in conclusion, read-out: IC50 of cell growth inhibition, DLD-1) [µM] | Growth inhibition of KYSE-150 cells as compared to positive control ([2]; compared with canthatidin) | Growth inhibition of MCF-7 cells as compared to positive control ([3]; compared with canthatidin) | Growth inhibition of MDA-MB-231 cells as compared to positive control ([4]; compared with canthatidin) | Growth inhibition of DLD-1 cells as compared to positive control ([5]; compared with canthatidin)
1 | C[C@@]12C(=O)OC(=O)[C@]1(C)[C@H]1CC[C@@H]2O1 [Cantharidin, reference compound] | 3.1 | 3.1 | 13 | 4.69 | 13.9 | 4.52 |  |  |  |  |  |  |  |  |  | 
2 | COC(=O)C1=C(C(=O)OC)C2OC1CC2C#Cc1ccc(OC)cc1 (centres unmarked) [Compound 1] | 6.2 | 1.82 | 2.46 | 2.3 | 6 | 21.3 | do not migrate into the wound | do not alter the viability | < 10 | < 10 | < 10 | < 10 |  |  |  | 
3 | CCOC(=O)C1=C(C(=O)OCC)C2OC1CC2C#Cc1ccc(OC)cc1 (centres unmarked) [Compound 2] | 15.7 | 1.4 | 6.39 | 2.81 | 1.74 | 26 | do not migrate into the wound | do not alter the viability |  |  |  |  | growth-inhibiting effects | growth-inhibiting effects | growth-inhibiting effects | 
4 | COc1ccc(C#CC2CC3OC2C(C(=O)OC(C)(C)C)=C3C(=O)OC(C)(C)C)cc1 (centres unmarked) [Compound 3] | 8.4 | 5.4 | 33.4 | 50.2 | 3.77 | 6.31 | do not migrate into the wound | do not alter the viability |  |  |  |  |  |  |  | growth-inhibiting effects
